Assay results published in publication PMC7827406, “Structure–Activity Relationship (SAR) Study of Spautin-1 to Entail the Discovery of Novel NEK4 Inhibitors” (International Journal of Molecular Sciences, 2021).
Read-outs that look alike come from different tables or passages of the source.

Columns and labels:
Assay in all cases: biochemical
Set-up in all cases: Eurofins KinaseProfiler full panel at Km ATP, residual kinase activity (%) relative to DMSO
MLK1(h) = molecular target: T1, MLK1(h) (Homo sapiens, UniProt P80192)
T1 construct: gene MAP3K9
In short: (§1)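 Radiometric kinase activity assays were run with ATP at Km and compounds at 10 µM, and remaining activity (%) was reported. A separate competitive binding screen measured DNA-tagged kinase displaced from immobilized active-site ligands by qPCR, giving percent kinase still bound at 10 µM compound in DMSO.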

Lck(h) activated = Lck(h) activated (Homo sapiens, UniProt P06239)
Sequence of Lck(h) activated (P06239 whole entry): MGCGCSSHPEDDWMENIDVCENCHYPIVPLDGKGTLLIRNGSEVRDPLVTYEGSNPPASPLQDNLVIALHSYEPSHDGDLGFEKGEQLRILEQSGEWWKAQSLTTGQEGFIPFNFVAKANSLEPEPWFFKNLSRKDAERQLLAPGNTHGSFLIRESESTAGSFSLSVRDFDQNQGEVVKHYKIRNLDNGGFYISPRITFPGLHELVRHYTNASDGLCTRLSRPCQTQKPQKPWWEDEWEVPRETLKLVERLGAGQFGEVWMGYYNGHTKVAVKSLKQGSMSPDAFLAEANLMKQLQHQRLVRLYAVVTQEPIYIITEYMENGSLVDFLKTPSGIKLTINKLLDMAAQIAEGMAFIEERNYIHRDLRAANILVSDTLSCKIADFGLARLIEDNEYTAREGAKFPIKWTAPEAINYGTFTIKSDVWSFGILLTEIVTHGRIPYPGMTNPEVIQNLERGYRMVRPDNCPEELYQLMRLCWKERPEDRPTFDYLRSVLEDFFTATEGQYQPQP
In short: as §1

STK16(h) = STK16(h) (Homo sapiens, UniProt O75716)
Sequence of STK16(h) (O75716 whole entry): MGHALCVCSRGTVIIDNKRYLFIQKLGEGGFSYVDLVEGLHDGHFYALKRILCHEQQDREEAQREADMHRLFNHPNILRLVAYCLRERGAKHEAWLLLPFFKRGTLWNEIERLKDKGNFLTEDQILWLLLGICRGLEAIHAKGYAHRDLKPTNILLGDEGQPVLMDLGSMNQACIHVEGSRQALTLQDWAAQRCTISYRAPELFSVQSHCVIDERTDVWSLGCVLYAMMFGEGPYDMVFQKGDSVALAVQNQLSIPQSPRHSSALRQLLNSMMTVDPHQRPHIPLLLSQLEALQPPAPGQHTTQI
In short: as §1

[1] = molecular target: T2, PI3 Kinase (p110a(E545K)/p85a)(m) (Mus musculus, UniProt P42337, E545K)
T2 construct: gene Pik3ca
In short: as §1

B-Raf(h) = molecular target: T3, B-Raf(h) (Homo sapiens, UniProt P15056)
T3 construct: gene BRAF
T3 sequence (P15056 whole entry): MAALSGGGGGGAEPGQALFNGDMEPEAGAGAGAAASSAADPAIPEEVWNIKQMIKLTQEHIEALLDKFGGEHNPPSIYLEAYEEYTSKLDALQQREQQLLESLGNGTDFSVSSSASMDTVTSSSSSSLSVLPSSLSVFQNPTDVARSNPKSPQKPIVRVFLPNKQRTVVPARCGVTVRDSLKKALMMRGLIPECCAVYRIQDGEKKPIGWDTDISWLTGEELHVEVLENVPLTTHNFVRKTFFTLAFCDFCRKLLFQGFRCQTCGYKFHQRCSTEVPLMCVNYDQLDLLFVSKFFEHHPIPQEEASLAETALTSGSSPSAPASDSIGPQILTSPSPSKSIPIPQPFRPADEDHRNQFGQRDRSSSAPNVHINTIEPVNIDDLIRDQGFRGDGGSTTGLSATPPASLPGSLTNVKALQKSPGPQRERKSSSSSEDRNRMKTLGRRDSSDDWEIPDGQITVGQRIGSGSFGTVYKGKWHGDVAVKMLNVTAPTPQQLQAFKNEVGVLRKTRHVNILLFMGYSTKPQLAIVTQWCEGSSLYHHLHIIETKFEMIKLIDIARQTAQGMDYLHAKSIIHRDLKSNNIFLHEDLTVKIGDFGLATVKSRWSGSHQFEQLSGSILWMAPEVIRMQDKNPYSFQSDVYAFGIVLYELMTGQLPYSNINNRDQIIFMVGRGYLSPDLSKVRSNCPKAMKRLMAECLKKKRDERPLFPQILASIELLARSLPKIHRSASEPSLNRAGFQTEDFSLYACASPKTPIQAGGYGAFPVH
In short: as §1

MLK2(h) = molecular target: T4, MLK2(h) (Homo sapiens, UniProt Q02779)
T4 construct: gene MAP3K10
T4 sequence (Q02779 whole entry): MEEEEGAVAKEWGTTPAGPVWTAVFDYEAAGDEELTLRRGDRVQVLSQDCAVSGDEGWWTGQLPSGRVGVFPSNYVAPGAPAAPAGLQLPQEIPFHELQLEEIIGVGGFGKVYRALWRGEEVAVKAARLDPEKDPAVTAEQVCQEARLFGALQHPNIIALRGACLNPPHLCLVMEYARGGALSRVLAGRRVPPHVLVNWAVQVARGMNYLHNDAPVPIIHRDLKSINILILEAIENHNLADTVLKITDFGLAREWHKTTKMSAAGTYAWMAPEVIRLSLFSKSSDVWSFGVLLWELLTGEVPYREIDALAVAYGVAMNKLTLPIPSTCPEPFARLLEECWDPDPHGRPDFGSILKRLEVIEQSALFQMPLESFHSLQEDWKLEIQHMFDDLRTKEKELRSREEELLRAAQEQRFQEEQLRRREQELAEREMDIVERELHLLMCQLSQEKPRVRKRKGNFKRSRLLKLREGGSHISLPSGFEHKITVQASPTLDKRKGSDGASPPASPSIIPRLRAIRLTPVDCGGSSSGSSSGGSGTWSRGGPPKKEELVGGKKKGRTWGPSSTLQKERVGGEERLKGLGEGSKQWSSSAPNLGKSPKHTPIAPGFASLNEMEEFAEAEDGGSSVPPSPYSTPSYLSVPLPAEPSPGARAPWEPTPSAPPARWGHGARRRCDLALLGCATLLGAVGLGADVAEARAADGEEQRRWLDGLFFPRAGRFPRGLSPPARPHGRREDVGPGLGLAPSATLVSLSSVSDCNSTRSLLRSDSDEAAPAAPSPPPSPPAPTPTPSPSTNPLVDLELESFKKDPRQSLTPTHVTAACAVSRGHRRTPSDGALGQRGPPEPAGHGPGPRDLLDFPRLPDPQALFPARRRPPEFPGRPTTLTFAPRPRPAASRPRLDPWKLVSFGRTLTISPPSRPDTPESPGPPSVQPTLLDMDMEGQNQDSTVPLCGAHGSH
In short: as §1

GRK1(h) = molecular target: T5, GRK1(h) (Homo sapiens, UniProt Q15835)
T5 sequence (Q15835 1-563): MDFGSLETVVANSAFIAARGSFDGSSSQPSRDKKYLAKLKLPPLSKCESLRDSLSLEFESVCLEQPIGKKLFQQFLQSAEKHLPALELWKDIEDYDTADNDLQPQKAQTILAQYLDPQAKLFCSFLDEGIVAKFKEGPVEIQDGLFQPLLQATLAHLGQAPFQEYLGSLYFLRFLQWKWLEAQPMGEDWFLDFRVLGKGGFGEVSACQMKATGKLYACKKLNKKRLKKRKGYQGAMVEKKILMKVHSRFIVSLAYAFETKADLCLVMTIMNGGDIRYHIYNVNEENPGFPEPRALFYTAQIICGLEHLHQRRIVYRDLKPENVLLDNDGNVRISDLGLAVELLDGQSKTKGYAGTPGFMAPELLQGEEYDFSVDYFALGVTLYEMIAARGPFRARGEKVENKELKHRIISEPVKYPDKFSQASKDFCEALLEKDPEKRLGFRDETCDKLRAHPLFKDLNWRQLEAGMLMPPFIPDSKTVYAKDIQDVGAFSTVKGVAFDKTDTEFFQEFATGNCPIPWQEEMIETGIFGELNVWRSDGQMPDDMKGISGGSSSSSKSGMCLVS
In short: as §1

FGFR4(h) = FGFR4(h) (Homo sapiens, UniProt P22455)
Sequence of FGFR4(h) (P22455 whole entry): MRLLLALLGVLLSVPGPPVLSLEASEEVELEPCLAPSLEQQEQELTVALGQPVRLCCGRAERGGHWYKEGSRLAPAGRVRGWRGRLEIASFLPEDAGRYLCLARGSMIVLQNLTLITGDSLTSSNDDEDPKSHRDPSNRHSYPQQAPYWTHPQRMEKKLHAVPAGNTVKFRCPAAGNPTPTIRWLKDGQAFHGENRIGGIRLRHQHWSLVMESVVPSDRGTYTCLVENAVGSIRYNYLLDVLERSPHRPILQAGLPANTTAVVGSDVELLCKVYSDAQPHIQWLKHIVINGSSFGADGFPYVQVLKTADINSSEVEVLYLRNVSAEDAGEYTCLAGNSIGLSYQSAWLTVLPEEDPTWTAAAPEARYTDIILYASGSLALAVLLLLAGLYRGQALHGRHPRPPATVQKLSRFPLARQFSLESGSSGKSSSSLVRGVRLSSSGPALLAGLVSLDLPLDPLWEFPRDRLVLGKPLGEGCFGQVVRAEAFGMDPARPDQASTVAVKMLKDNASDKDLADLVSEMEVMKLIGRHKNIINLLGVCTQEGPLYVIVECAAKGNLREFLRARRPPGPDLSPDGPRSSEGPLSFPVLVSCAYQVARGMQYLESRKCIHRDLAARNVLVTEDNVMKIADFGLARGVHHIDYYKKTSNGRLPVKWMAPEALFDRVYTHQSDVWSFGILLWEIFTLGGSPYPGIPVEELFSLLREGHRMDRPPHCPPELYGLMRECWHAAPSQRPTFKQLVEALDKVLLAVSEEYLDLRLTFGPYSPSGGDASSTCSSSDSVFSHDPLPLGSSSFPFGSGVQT
In short: as §1

Arg(h) = molecular target: T6, Arg(h) (Homo sapiens, UniProt P42684)
T6 construct: gene ABL2
T6 sequence (P42684 whole entry): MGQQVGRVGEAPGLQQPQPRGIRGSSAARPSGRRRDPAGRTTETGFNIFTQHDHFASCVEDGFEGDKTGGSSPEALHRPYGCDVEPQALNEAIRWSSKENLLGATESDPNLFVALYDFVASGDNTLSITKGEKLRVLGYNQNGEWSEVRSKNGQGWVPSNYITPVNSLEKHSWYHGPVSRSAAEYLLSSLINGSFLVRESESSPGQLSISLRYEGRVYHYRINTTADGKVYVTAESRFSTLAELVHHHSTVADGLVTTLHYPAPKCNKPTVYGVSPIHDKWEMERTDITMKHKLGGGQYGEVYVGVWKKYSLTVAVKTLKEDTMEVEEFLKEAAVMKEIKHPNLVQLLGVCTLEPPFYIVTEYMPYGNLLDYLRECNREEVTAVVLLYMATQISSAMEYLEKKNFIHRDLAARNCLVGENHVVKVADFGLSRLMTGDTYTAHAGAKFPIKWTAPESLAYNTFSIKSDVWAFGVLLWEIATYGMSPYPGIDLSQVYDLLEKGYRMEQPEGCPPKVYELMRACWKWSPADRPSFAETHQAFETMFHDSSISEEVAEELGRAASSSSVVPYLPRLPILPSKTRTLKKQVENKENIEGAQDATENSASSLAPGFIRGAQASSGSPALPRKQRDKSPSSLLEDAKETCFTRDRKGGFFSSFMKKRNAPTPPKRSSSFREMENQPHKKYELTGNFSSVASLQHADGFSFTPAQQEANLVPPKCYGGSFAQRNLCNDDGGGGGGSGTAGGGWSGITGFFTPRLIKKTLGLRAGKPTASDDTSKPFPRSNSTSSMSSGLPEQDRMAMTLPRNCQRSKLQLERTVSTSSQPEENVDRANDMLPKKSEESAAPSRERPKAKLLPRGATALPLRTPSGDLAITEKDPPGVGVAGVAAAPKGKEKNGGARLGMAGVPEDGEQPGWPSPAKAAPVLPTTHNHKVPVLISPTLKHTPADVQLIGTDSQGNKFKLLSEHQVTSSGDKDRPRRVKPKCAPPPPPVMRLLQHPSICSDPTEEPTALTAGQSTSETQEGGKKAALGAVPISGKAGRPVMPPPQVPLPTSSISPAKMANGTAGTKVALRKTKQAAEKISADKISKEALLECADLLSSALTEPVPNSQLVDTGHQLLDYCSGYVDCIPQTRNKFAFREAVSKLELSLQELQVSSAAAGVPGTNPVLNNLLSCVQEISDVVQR
In short: as §1

ALK4(h) = molecular target: T7, ALK4(h) (Homo sapiens, UniProt P36896)
T7 construct: gene ACVR1B
T7 sequence (P36896 1-505): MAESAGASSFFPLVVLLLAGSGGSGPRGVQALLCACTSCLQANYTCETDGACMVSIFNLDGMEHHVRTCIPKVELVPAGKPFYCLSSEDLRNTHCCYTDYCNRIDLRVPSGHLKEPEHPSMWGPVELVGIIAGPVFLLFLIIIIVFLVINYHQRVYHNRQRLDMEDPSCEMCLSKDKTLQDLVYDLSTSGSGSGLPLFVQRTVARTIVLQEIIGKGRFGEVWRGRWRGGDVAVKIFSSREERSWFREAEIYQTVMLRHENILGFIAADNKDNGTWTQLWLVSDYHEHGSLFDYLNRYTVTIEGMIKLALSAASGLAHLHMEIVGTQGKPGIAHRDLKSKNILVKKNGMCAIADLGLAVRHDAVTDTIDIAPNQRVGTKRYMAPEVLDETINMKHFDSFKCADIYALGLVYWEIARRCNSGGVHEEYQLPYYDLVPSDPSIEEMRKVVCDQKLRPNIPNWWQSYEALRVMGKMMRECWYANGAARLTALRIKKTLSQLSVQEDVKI
In short: as §1

SBK1(h) = SBK1(h) (Homo sapiens, UniProt Q52WX2)
Sequence of SBK1(h) (Q52WX2 whole entry): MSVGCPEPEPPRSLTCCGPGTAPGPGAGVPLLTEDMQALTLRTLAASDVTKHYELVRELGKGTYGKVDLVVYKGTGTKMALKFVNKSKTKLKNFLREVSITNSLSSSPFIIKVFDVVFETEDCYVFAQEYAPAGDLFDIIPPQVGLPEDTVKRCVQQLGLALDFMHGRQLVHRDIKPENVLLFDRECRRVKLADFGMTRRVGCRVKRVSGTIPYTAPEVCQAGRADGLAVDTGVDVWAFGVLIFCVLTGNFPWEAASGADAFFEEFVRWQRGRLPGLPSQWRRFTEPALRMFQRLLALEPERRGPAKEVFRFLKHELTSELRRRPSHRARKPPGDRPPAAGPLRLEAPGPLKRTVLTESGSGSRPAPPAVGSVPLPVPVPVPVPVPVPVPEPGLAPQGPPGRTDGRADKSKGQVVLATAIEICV
In short: as §1

HRI(h) = molecular target: T8, HRI(h) (Homo sapiens, UniProt Q9BQI3)
T8 construct: gene EIF2AK1
In short: as §1

[2] = read-out: Residual activity (%) 5ay
[3] = read-out: Residual activity (%) Spautin-1 5aa
[4] = read-out: Residual activity (%) 5at
[5] = read-out: Residual activity (%) 5as

For `COc1ccc2ncnc(Nc3cccc(F)c3)c2c1` [5ay, N-(3-Fluorophenyl)-6-Methoxy-4-Quinazolinamine], the remaining activity at 10 µM (MLK1(h); [2]) was 68%, the remaining activity at 10 µM (Lck(h) activated; [2]) was 73% and the remaining activity at 10 µM (STK16(h); [2]) was 76%. For the same molecule, the remaining activity at 10 µM [1, 2] was 91%, the remaining activity at 10 µM (B-Raf(h); [2]) was 82% and the remaining activity at 10 µM (MLK2(h); [2]) was 96%. The remaining activity at 10 µM (GRK1(h); [2]) was 88%, the remaining activity at 10 µM (FGFR4(h); [2]) was 98% and the remaining activity at 10 µM (Arg(h); [2]) was 73%. For the same molecule, the remaining activity at 10 µM (ALK4(h); [2]) was 73%, the remaining activity at 10 µM (SBK1(h); [2]) was 83% and the remaining activity at 10 µM (HRI(h); [2]) was 99%.
`Fc1ccc(CNc2ncnc3ccc(F)cc23)cc1` [5aa, 6-Fluoro-N-(4-fluorobenzyl)-4-Quinazolinamine] gave a remaining activity at 10 µM (MLK1(h); [3]) of 89%, a remaining activity at 10 µM (Lck(h) activated; [3]) of 93% and a remaining activity at 10 µM (STK16(h); [3]) of 88%. For the same molecule, the remaining activity at 10 µM [1, 3] was 94%, the remaining activity at 10 µM (B-Raf(h); [3]) was 90% and the remaining activity at 10 µM (MLK2(h); [3]) was 95%. It also gave a remaining activity at 10 µM (GRK1(h); [3]) of 101%, a remaining activity at 10 µM (FGFR4(h); [3]) of 99% and a remaining activity at 10 µM (Arg(h); [3]) of 79%. The remaining activity at 10 µM (ALK4(h); [3]) was 121%, the remaining activity at 10 µM (SBK1(h); [3]) was 106% and the remaining activity at 10 µM (HRI(h); [3]) was 96%.
For `Fc1ccc2ncnc(NCCc3ccc(Cl)cc3)c2c1` [5at, N-[2-(4-Chlorophenyl)Ethyl]-6-Fluoro-4-Quinazolinamine], the remaining activity at 10 µM (MLK1(h); [4]) was 76%, the remaining activity at 10 µM (Lck(h) activated; [4]) was 91% and the remaining activity at 10 µM (STK16(h); [4]) was 78%. The remaining activity at 10 µM [1, 4] was 91%, the remaining activity at 10 µM (B-Raf(h); [4]) was 92% and the remaining activity at 10 µM (MLK2(h); [4]) was 93%. It also gave a remaining activity at 10 µM (GRK1(h); [4]) of 81%, a remaining activity at 10 µM (FGFR4(h); [4]) of 96% and a remaining activity at 10 µM (Arg(h); [4]) of 81%. For the same molecule, the remaining activity at 10 µM (ALK4(h); [4]) was 61%, the remaining activity at 10 µM (SBK1(h); [4]) was 103% and the remaining activity at 10 µM (HRI(h); [4]) was 101%.
Work on `Fc1ccc(CCNc2ncnc3ccc(F)cc23)cc1` [5as, 6-Fluoro-N-[2-(4-Fluorophenyl)Ethyl]-4-Quinazolinamine] yielded a remaining activity at 10 µM (MLK1(h); [5]) of 77%, a remaining activity at 10 µM (Lck(h) activated; [5]) of 100% and a remaining activity at 10 µM (STK16(h); [5]) of 75%. The remaining activity at 10 µM [1, 5] was 91%, the remaining activity at 10 µM (B-Raf(h); [5]) was 83% and the remaining activity at 10 µM (MLK2(h); [5]) was 97%. The remaining activity at 10 µM (GRK1(h); [5]) was 79%, the remaining activity at 10 µM (FGFR4(h); [5]) was 93% and the remaining activity at 10 µM (Arg(h); [5]) was 82%. It also gave a remaining activity at 10 µM (ALK4(h); [5]) of 84%, a remaining activity at 10 µM (SBK1(h); [5]) of 95% and a remaining activity at 10 µM (HRI(h); [5]) of 99%.
